Test results reported in patent US20170050957A1, “4-AMINO-6-(HETEROCYCLIC)PICOLINATES AND 6-AMINO-2-(HETEROCYCLIC)PYRIMIDINE-4-CARBOXYLATES AND THEIR USE AS HERBICIDES” (Dow AgroSciences LLC, priority 2013, published 2017).
Read-outs that look alike come from different tables or passages of the source.

Key:
[1] = tested on: Key Grass and Sedge Weeds as well as Grass Crops; assay: Post-emergent Test II herbicidal activity (Table 16); type: in vivo; conditions: post-emergence, 336 h, 14 d; for pest or weed control at 35 g/ha: 35 g ai/ha; for pest or weed control at 70 g/ha: 70 g ai/ha; for pest or weed control at 140 g/ha: 140 g ai/ha
Summary of the method: (§1)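 Plants at first-second true leaf stage, grown 7-21 d in greenhouse (~15 h photoperiod, 23-29 °C day), were track-sprayed at 187 L/ha with compound in acetone/DMSO/water/isopropanol/crop oil/Triton X-155 at a high rate plus 1/2× to 1/16× dilutions. Injury scored visually after 14 d versus untreated plants, 0 (none) to 100% (complete kill).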

[2] = tested on: Key Broadleaf Weed and Crop Species; assay: Post-emergent Test II herbicidal activity (Table 15); type: in vivo; conditions: post-emergence, 336 h, 14 d; for pest or weed control at 35 g/ha: 35 g ai/ha; for pest or weed control at 70 g/ha: 70 g ai/ha; for pest or weed control at 140 g/ha: 140 g ai/ha
Summary of the method: as §1

[3] = Cyperus esculentus, yellow nutsedge (Cyperus esculentus), read-out: Visual Growth Reduction (%) 14 Days After Application, CYPES
[4] = Echinochloa crus-galli, barnyardgrass (Echinochloa crus-galli), read-out: Visual Growth Reduction (%) 14 Days After Application, ECHCG
[5] = Oryza sativa, rice (Oryza sativa), read-out: Visual Growth Reduction (%) 14 Days After Application, ORYSA
[6] = Setaria faberi, giant foxtail (Setaria faberi), read-out: Visual Growth Reduction (%) 14 Days After Application, SETFA
[7] = Triticum aestivum, wheat, spring (Triticum aestivum), read-out: Visual Growth Reduction (%) 14 Days After Application, TRZAS
[8] = Zea mays, maize, corn (Zea mays), read-out: Visual Growth Reduction (%) 14 Days After Application, ZEAMX
[9] = Abutilon theophrasti, velvetleaf (Abutilon theophrasti), read-out: Visual Growth Reduction (%) 14 Days After Application, ABUTH
[10] = Amaranthus retroflexus, redroot pigweed (Amaranthus retroflexus), read-out: Visual Growth Reduction (%) 14 Days After Application, AMARE
[11] = Brassica napus, oilseed rape, canola (Brassica napus), read-out: Visual Growth Reduction (%) 14 Days After Application, BRSNN
[12] = Chenopodium album, lambsquarters (Chenopodium album), read-out: Visual Growth Reduction (%) 14 Days After Application, CHEAL
[13] = Euphorbia heterophylla, wild poinsettia (Euphorbia heterophylla), read-out: Visual Growth Reduction (%) 14 Days After Application, EPHHL
[14] = Helianthus annuus, sunflower (Helianthus annuus), read-out: Visual Growth Reduction (%) 14 Days After Application, HELAN

COC(=O)c1nc(-c2cc3occc3cc2F)nc(N)c1OC [Compound 2.14]
pest or weed control at 35 g/ha [1, 3]: 0 to 29% | pest or weed control at 70 g/ha [1, 3]: 0 to 29% | pest or weed control at 140 g/ha [1, 3]: 0 to 29% | pest or weed control at 35 g/ha [1, 4]: 0 to 29% | pest or weed control at 70 g/ha [1, 4]: 0 to 29% | pest or weed control at 140 g/ha [1, 4]: 75 to 84% | pest or weed control at 35 g/ha [1, 5]: 0 to 29% | pest or weed control at 70 g/ha [1, 5]: 0 to 29% | pest or weed control at 140 g/ha [1, 5]: 0 to 29% | pest or weed control at 35 g/ha [1, 6]: 0 to 29% | pest or weed control at 70 g/ha [1, 6]: 0 to 29% | pest or weed control at 140 g/ha [1, 6]: 0 to 29% | pest or weed control at 35 g/ha [1, 7]: 0 to 29% | pest or weed control at 70 g/ha [1, 7]: 0 to 29% | pest or weed control at 140 g/ha [1, 7]: 0 to 29% | pest or weed control at 35 g/ha [1, 8]: 0 to 29% | pest or weed control at 70 g/ha [1, 8]: 0 to 29% | pest or weed control at 140 g/ha [1, 8]: 0 to 29% | pest or weed control at 35 g/ha [2, 9]: 0 to 29% | pest or weed control at 70 g/ha [2, 9]: 0 to 29% | pest or weed control at 140 g/ha [2, 9]: 0 to 29% | pest or weed control at 35 g/ha [2, 10]: 95 to 100% | pest or weed control at 70 g/ha [2, 10]: 95 to 100% | pest or weed control at 140 g/ha [2, 10]: 95 to 100% | pest or weed control at 35 g/ha [2, 11]: 95 to 100% | pest or weed control at 70 g/ha [2, 11]: 95 to 100% | pest or weed control at 140 g/ha [2, 11]: 95 to 100% | pest or weed control at 35 g/ha [2, 12]: 85 to 94% | pest or weed control at 70 g/ha [2, 12]: 95 to 100% | pest or weed control at 140 g/ha [2, 12]: 95 to 100% | pest or weed control at 35 g/ha [2, 13]: 85 to 94% | pest or weed control at 70 g/ha [2, 13]: 95 to 100% | pest or weed control at 140 g/ha [2, 13]: 95 to 100% | pest or weed control at 35 g/ha [2, 14]: 60 to 74% | pest or weed control at 70 g/ha [2, 14]: 85 to 94% | pest or weed control at 140 g/ha [2, 14]: 95 to 100% | melting point: 153 °C
